Laboratory results: US6703388B2, “Nitrogen-containing tricyclic compounds and drugs containing the same” (Eisai Co., Ltd., priority 1996, dated 2004)
Like-named read-outs stand apart in the source and are kept apart here.

Assays:
RBL-2H3 cells = assay: Inhibition of serotonin liberation from IgE-sensitized RBL-2H3 cells after antigen stimulation; format: cell-based, rat; conditions: Rattus norvegicus
Procedure, shortened: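 Rat RBL-2H3 cells labelled with [3H]-serotonin and sensitized with IgE simultaneously, incubated with compound, then challenged with specific antigen. Inhibition derived from [3H]-serotonin released into medium relative to release without compound.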

[1] = target: T1, tyrosine kinase of 72 kDa (Rattus norvegicus, UniProt Q64725); assay: Inhibition of activation (phosphorylation) of tyrosine kinase of 72 kDa due to antigenic stimulation in RBL-2H3 cells; format: cell-based
T1 construct: endogenous in cells; host or cells: RBL-2H3 cells
Protocol: RBL-2H3 cells were incubated for 10 min together with a test compound in a PBS buffer containing 0.1% of BSA and 1 mM of calcium. Next, the cells were reacted with an antigen specific for the IgE receptor for 10 min. After the completion of the antigenic stimulation, the cells were allowed to stand in ice for 1 hr in a 10 mM phosphate buffer (pH 7.5) containing a lysis buffer (1% Triton X-100, 0.1% SDS, 0.5% sodium deoxycholate, 50 mM NaCl, 50 mM NaF, 1 mM phenylmethyl sulfonyl fluoride, 50 μg/ml eupeptin, 10 unit/ml aprotonin) and 0.1% of NaN3 followed by centrifugation to give a cell lysate. This lysate was diluted with a buffer for electrophoresis, heated (95° C., 5 min) and then electrophoresed on a 10% SDS-polyacrylamide gel. After the electrophoresis, the sample was electrically transcribed onto a 0.2 μm nitrocellulose membrane and treated with an anti-phosphotyrosine antibody for 1 hr. Then the inhibitory activity was evaluated by the coloring analysis through chemiluminescence.

human basophils = assay: Inhibition of mediator (histamine, peptide leukotriene) liberation from human basophils stimulated with mite antigen; format: cell-based; conditions: enzyme immunoassay
Procedure, shortened: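 Dextran-separated leukocyte fraction containing basophils from heparinized human blood, in D-PBS(+) with 0.1% BSA, pretreated with compound 15 min at 37 °C, then challenged with mite antigen for 10 min. Released histamine and peptide leukotrienes in supernatant quantified by enzyme immunoassay.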

[2] = target: T2, IgE receptor γ chain and 72 kDa tyrosine kinase (Rattus norvegicus, UniProt Q64725); assay: Inhibition of binding of IgE receptor γ chain to tyrosine kinase of 72 kDa (kinase phosphorylation in RBL-2H3 lysate or cytosol); format: biochemical; conditions: Conc. of Compd. 10 μM
T2 construct: The phosphorylation experiment of the 72 kDa tyrosine kinase contained in the lysate or cytosol; endogenous in cells; host or cells: RBL-2H3 cell lysate (1% NP-40) or cytosolic fraction
Protocol: RBL-2H3 cells which are a cell line generally used in studying IgE-mediated intracellular signal transduction in mast cells and basophils were used in this study. Tyrosine-phosphorylated peptide in the tyrosine activation motif (TAM) region in the IgE receptor γ chain was synthesized by Peptide Institute.
In the experiment, cell lysates or cytosolic fraction of RBL-2H3 cells were used. Cell lysates were prepared by solubilizing 1×10^7 to 5×10^7 cells with a solution containing various protease inhibitors and 1%-NP-40 as a solubilizer. Separately, the cells were homogenized in a Downs homogenizer and centrifuged at 50,000 rpm for 1 hr, and the resulting supernatant was used as the cytosol fraction of the cells. The concentration of the lysate or cytosol was adjusted to 1 mg protein/ml with an isotonic buffer. The phosphorylation experiment of the 72 kDa tyrosine kinase contained in the lysate or cytosol was carried out in the following manner.
An assay buffer [150 mM NaCl, 10 mM KCl, 20 mM Tris (pH 7.5), 0.6 mM MnCl2, 0.5 mM EGTA, 5 mM NaF, 1 mM sodium pyrophosphate and 1 mM sodium orthovanadate] containing the lysate or cytosol in an amount corresponding to […] of protein was incubated together with the compound 101 at 30° C. for 3 min. After adding […] of the peptide in the TAM region containing the phosphorylated tyrosine and […] of ATP, the incubation was further effected at 30° C. for 15 min. After the completion of the reaction, the sample was electrophoresed on a 10% […] gel and a tyrosine kinase of 72 kDa was separated. The activation of this kinase was confirmed by examining the phosphorylation of the tyrosine moiety in the kinase per se by western blotting with the use of anti-tyrosine phosphorylation antibody. Then the extent of the phosphorylation was numerically expressed by using an image analyzer and thus the tyrosine kinase phosphorylation inhibitory ratio of the compound 101 was determined

[3] = [3H]-serotonin release, IgE-sensitized RBL-2H3 cells, antigen stimulation, read-out: IC50 (μM) in serotonin liberation from RBL-2H3 cells
[4] = histamine, read-out: IC50 (μM) in mediator liberation from human basophils: histamine
[5] = peptide leukotriene, read-out: IC50 (μM) in mediator liberation from human basophils: leukotriene

T2 sequence (Q64725 whole entry): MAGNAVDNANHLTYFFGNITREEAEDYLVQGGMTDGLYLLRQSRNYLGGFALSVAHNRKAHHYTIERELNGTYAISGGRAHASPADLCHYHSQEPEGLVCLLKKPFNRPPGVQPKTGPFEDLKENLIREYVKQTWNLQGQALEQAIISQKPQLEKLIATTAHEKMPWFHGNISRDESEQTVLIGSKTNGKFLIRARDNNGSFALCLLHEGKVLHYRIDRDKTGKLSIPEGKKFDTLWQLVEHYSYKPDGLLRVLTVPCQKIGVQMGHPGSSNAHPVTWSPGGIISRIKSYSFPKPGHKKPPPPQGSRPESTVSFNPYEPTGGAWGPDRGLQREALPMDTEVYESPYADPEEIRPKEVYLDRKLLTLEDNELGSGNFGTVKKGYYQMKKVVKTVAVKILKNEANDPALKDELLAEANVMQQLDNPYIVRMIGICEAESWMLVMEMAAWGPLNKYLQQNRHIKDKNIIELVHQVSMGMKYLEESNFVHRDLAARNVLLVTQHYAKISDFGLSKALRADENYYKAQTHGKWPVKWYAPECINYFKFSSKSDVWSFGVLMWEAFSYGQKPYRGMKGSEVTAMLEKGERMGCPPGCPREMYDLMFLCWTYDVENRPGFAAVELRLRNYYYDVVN
T1 sequence (Q64725 whole entry): as above

Structure (SMILES)	Inhibitory Strength (%) ([1]; Conc. of Compd. 3 μM)	Inhibitory Strength (%) [2] [%]	Inhibitory Strength (%) ([1]; Conc. of Compd. 10 μM)	Inhibitory Strength (%) ([1]; Conc. of Compd. 30 μM)	IC50 (RBL-2H3 cells; [3]) [µM]	IC50 (human basophils; [4]) [µM]	IC50 (human basophils; [5]) [µM]	IC50 (RBL-2H3 cells; RBL-2H3, read-out: IC50 (μM) in serotonin liberation from RBL-2H3 cells) [µM]
Cc1ccc2c(c1C)N(CCCN1CCCCC1)c1ccccc1[S+]2[O-] (stereo not drawn) [Example 104]	100	–	–	–	< 3	–	–	–
Cc1ccc2c(c1C)N(CCCN1CCN(S(=O)(=O)c3ccccc3)CC1)c1ccccc1[S+]2[O-] (stereo not drawn) [Example 115]	–	–	80	–	3	30 to 100	10	–
Cc1ccc2c(c1C)N(CCCN1CCC(O)(c3ccccc3)CC1)c1ccccc1[S+]2[O-] (stereo not drawn) [Example 124]	–	100	100	–	–	10 to 30	10	2
Cc1ccc2c(c1C)N(CCCN1CCC(C(=O)O)CC1)c1ccccc1[S+]2[O-] (stereo not drawn) [Example 129]	100	–	–	–	< 1	–	–	–
Cc1ccc2c(c1C)N(CCCN(CC(=O)O)CC(=O)O)c1ccccc1[S+]2[O-] (stereo not drawn) [Example 132]	100	–	–	–	2	–	–	–
COc1ccccc1CN(C)CCN1c2ccccc2[S+]([O-])c2ccc(C)c(C)c21 (stereo not drawn) [Example 182]	–	–	–	–	2	30 to 100	10 to 30	–
Cc1ccc2c(c1C)N(CCN(C)Cc1ccccc1OCCO)c1ccccc1[S+]2[O-] (stereo not drawn) [Example 183]	–	–	–	–	3	30 to 100	10 to 30	–
Cc1ccc2c(c1C)N(CCN(C)Cc1cccc(CO)c1O)c1ccccc1[S+]2[O-] (stereo not drawn) [Example 185]	–	–	–	–	0.5	10 to 30	< 3	–
Cc1ccc2c(c1)N(CCCN(C)Cc1ccccc1O)c1c(ccc(C)c1C)[S+]2[O-] (stereo not drawn) [Example 188]	–	–	–	–	1	10	3 to 10	–
COc1ccc2c(c1)N(CCCN(C)Cc1ccccc1O)c1c(ccc(C)c1C)[S+]2[O-] (stereo not drawn) [Example 189]	–	–	–	–	0.8	3 to 10	3 to 10	–
Cc1ccc2c(c1C)N(CCCN(C)Cc1ccccc1)c1cc(-c3nnn(C)n3)ccc1[S+]2[O-] (stereo not drawn) [Example 190]	–	–	–	–	0.5	3	10	–
Cc1ccc2c(c1C)N(CCN(CCO)Cc1ccccc1)c1ccccc1[S+]2[O-] (stereo not drawn) [Example 193]	–	–	–	–	2	30	10	–
Cc1ccc2c(c1C)N(CCNCc1ccc(S(N)(=O)=O)cc1)c1ccccc1[S+]2[O-] (stereo not drawn) [Example 195]	–	–	–	–	0.5	30 to 100	10 to 30	–
Cc1ccc2c(c1C)N(CCCN)c1ccccc1S2(=O)=O [Example 196, 1,2-Dimethyl-10-(3-aminopropyl)phenothiazine-5,5-dioxide]	–	–	–	30%	5	–	–	–
Cc1ccc2c(c1C)N(CCCNCc1ccccc1)c1cc(CCO)ccc1S2(=O)=O [Example 201]	–	–	–	30-70%	10	10	< 10	–
Cc1ccc2c(c1C)N(CCCN(CCO)Cc1ccccc1)c1ccccc1S2(=O)=O [Example 202]	–	–	–	80%	6	10 to 30	< 10	–
Cc1ccc2c(=NOCCC(=O)O)c3ccccc3n(CCCNCc3ccccc3)c2c1C [Example 235]	100	–	–	–	< 1	30	30	–
Cc1ccc2c(=NOC(C)C(=O)O)c3ccccc3n(CCCNCc3ccccc3)c2c1C (stereo not drawn) [Example 236]	70	–	–	–	1	–	–	–

Further lines, with some results ahead:

Inhibitory Strength (%) ([1]; Conc. of Compd. 3 μM)	Inhibitory Strength (%) [2] [%]	Inhibitory Strength (%) ([1]; Conc. of Compd. 10 μM)	Inhibitory Strength (%) ([1]; Conc. of Compd. 30 μM)	Structure (SMILES)	IC50 (RBL-2H3 cells; [3]) [µM]	IC50 (human basophils; [4]) [µM]	IC50 (human basophils; [5]) [µM]	IC50 (RBL-2H3 cells; RBL-2H3, read-out: IC50 (μM) in serotonin liberation from RBL-2H3 cells) [µM]
100	–	–	–	Cc1ccc2c(c1C)N(CCCN)c1ccccc1[S+]2[O-] (stereo not drawn) [Example 8, 1,2-Dimethyl-10-(3-aminopropyl)phenothiazine-5-oxide]	0.1	–	–	–
100	80	–	–	Cc1ccc2c(c1C)N(CCCNCc1ccccc1)c1ccccc1[S+]2[O-] (stereo not drawn) [Example 22, 1,2-Dimethyl-10-(3-benzylaminopropyl)-phenothiazine-5-oxide]	0.1	10 to 30	10	–
100	–	–	–	Cc1ccc2c(c1C)N(CCCNCc1ccccc1)c1cc(CCO)ccc1[S+]2[O-] (stereo not drawn) [Example 94]	< 1	30 to 100	10	–
100	–	–	–	Cc1ccc2c(c1C)N(CCCN(CCO)Cc1ccccc1)c1ccccc1[S+]2[O-] (stereo not drawn) [Example 105]	2	30	10 to 30	–
–	–	–	100%	Cc1ccc2c(c1C)N(CCCNc1ccccc1)c1ccccc1[S+]2[O-] (stereo not drawn) [Example 123]	3	30	10 to 30	–
–	100	100	–	Cc1ccc2c(c1C)N(CCCN1CCC(Cc3ccccc3)CC1)c1ccccc1[S+]2[O-] (stereo not drawn) [Example 127]	2	10 to 30	10	–
–	–	100	–	Cc1ccc2c(c1C)N(C/C=C/CNCc1ccccc1)c1ccccc1[S+]2[O-] (stereo not drawn) [Example 138, 1,2-Dimethyl-10-[4-benzylamino(2-butenyl)]phenothiazine-5-oxide]	3	10 to 30	10	–
–	–	100	–	Cc1ccc2c(c1C)N(CCCCNCc1ccccc1)c1ccccc1[S+]2[O-] (stereo not drawn) [Example 139]	2	30 to 100	10 to 30	–
–	–	100	–	Cc1ccc2c(c1C)N(CCNCc1ccccc1)c1ccccc1[S+]2[O-] (stereo not drawn) [Example 143, 1,2-Dimethyl-10-(2-benzylaminoethyl)phenothiazine-5-oxide]	3	< 10	< 10	–
–	–	100	–	Cc1ccc2c(c1C)N(CCN(C)Cc1ccccc1O)c1ccccc1[S+]2[O-] (stereo not drawn) [Example 179]	2	10 to 30	3 to 10	–
–	–	–	70%	Cc1ccc2c(c1C)N(CCCNCc1ccccc1)c1ccccc1S2(=O)=O [Example 200]	0.4	–	–	–
–	–	–	100%	Cc1ccc2c(c1C)N(CCCNCc1ccccc1)c1cccc(CC(=O)O)c1[S+]2[O-] (stereo not drawn) [Example 262]	8	–	–	–
